Values quoted from earlier work in patent EP2361606A2, “Oral and tooth care and cleaning agents with ethyl lauroyl arginate” (Henkel AG & Co. KGaA, priority 2010, dated 2011).
Read-outs that look alike come from different tables or passages of the source.

[1] = in water, temperature not given, bound that defines the group of soluble inorganic zinc salts
[2] = in water, 20°C, bound that defines the group of not soluble / soluble zinc salts

Zinksulfat
Löslichkeit [1]: > 100 mg/L

Zinnlaureat
Löslichkeit [2]: < 100 mg/L

Zinkbenzoat
Löslichkeit [2]: > 100 mg/L

Zinkchlorid
Löslichkeit (25°C): 4320 g/I (25°C) | Löslichkeit [1]: > 100 mg/L

Zinkvalerat
Löslichkeit [2]: > 100 mg/L

Zinkacetat
Löslichkeit [2]: > 100 mg/L

Zinknitrat Hexahydrat
Löslichkeit (20°C): 1843 g/I (20°C)

Zinktartrat
Löslichkeit [2]: < 100 mg/L

Zinkacetat-Dihydrat
Löslichkeit (20°C): 430 g/I (20°C)

Zinknitrat
Löslichkeit [1]: > 100 mg/L

Zinkhydroxycarbonat
Löslichkeit (result in words, 20°C): Fast unlöslich (20°C)

Zinkformiat
Löslichkeit [2]: > 100 mg/L

Zinksalz der p-Toluolsulfonsäure
Löslichkeit [2]: > 100 mg/L

Zinkbromid
Löslichkeit (25°C): 820 g/I (25°C) | Löslichkeit [1]: > 100 mg/L

Zinkiodid
Löslichkeit (20°C): 4500 g/I (20°C) | Löslichkeit [1]: > 100 mg/L

Zinkcitrat
Löslichkeit [2]: < 100 mg/L

Zinknitrat-Tetrahydrat
Löslichkeit (result in words, 20°C): Leicht löslich (20°C)

Zinkstearat
Löslichkeit (20°C): 0,9 mg/I (20°C) | Löslichkeit [2]: < 100 mg/L

Zinkoxalat
Löslichkeit [2]: < 100 mg/L

Zinkoxid
Löslichkeit [2]: < 100 mg/L | Löslichkeit (result in words, temperature not given): Unlöslich

Zinklactat
Löslichkeit [2]: > 100 mg/L

Zinkoleat
Löslichkeit [2]: < 100 mg/L

Zinksulfat-Monohydrat
Löslichkeit (20°C): ∼350 g/I (20°C)

Zinkgluconat
Löslichkeit (20°C): 100 g/I (20°C) | Löslichkeit [2]: > 100 mg/L

Zinksulfat-Heptahydat
Löslichkeit (20°C): 960 g/I (20°C)
